Laboratory results as given in the supplement of paper PMC11061612.

Assays:
[1] = system: OV-90 (Ovarian Carcinoma); assay: combination Emax (second highest fraction inhibited in the dose matrix, 72 h); higher = more inhibition; extreme values may be limits of the assay
Method in brief: (§1)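 After 24 hours at 37°C and 5% CO2 in 1536-well plates, cells in DMEM/F12 or RPMI plus 10% FBS received two-drug dose matrices for 72 hours. Viability came from CellTiter-Glo 2.0 luminescence and was scaled as inhibition, anchored at 0 by vehicle wells and at 1 by blank wells. Combination Emax is taken as the second-highest inhibition in the matrix, and Bliss excess as the observed combination effect less EA + EB − EA·EB, with EA and EB the single-agent effects.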

ES-2 (Ovarian Carcinoma) [2] = assay: as above
Method in brief: as §1

[3] = system: AsPC-1 (Pancreatic Carcinoma); assay: as above
Method in brief: as §1

[4] = system: PC-14 (Lung Adenocarcinoma); assay: as above
Method in brief: as §1

[5] = system: RPMI-8866 (Chronic Myelogenous Leukemia); assay: as above
Method in brief: as §1

[6] = system: LOUCY (T-Lymphoblastic Leukemia); assay: as above
Method in brief: as §1

[7] = system: RMG-I (Ovarian Carcinoma); assay: as above
Method in brief: as §1

[8] = system: NCI-H196 (Small Cell Lung Carcinoma); assay: as above
Method in brief: as §1

CHL-1 (Melanoma) = assay: as above
Method in brief: as §1

[9] = system: SW684 (Other Solid Carcinomas); assay: as above
Method in brief: as §1

[10] = system: OVTOKO (Ovarian Carcinoma); assay: as above
Method in brief: as §1

[11] = system: JHH-1 (Hepatocellular Carcinoma); assay: as above
Method in brief: as §1

[12] = system: NCI-H1755 (Lung Adenocarcinoma); assay: as above
Method in brief: as §1

[13] = system: EB-3 (Burkitt's Lymphoma); assay: as above
Method in brief: as §1

[14] = system: SK-MM-2 (Plasma Cell Myeloma); assay: as above
Method in brief: as §1

[15] = system: OCI-AML5 (Acute Myeloid Leukemia); assay: as above
Method in brief: as §1

[16] = system: AN3-CA (Endometrial Carcinoma); assay: as above
Method in brief: as §1

[17] = system: HSC-3 (Oral Cavity Carcinoma); assay: as above
Method in brief: as §1

[18] = system: Becker (Low Grade Glioma); assay: Bliss excess, mean over the matrix (fraction); higher = more synergy
Method in brief: as §1

ES-2 (Ovarian Carcinoma) [19] = assay: as above
Method in brief: as §1
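Throughout, for Bliss excess, mean over the matrix: after 72 h of two-drug dosing.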

Row | Compound | combination Emax [1] | combination Emax (ES-2 (Ovarian Carcinoma) [2]) | combination Emax [3] | combination Emax [4] | combination Emax [5] | combination Emax [6] | combination Emax [7] | combination Emax [8] | combination Emax (CHL-1 (Melanoma)) | combination Emax [9] | combination Emax [10] | combination Emax [11] | combination Emax [12] | combination Emax [13] | combination Emax [14] | combination Emax [15] | combination Emax [16] | combination Emax [17] | Bliss excess [18] | Bliss excess (ES-2 (Ovarian Carcinoma) [19])
1 | NC1(C(=O)N[C@@H](CCO)c2ccc(Cl)cc2)CCN(c2ncnc3[nH]ccc23)CC1 [Capivasertib] + C[C@@H]1COCCN1C2=NC(=NC(=C2)C3(CC3)[S@](=N)(=O)C)C4=C5C=CNC5=NC=C4 [AZD6738] (first compound max 10 µM, 7x7, partner max 10 µM) | 0.614 | 0.86 | 0.329 | 0.854 | 0.911 | 0.979 | 0.385 | 0.408 | 0.732 | 0.587 | 0.628 | 0.409 | 0.83 | 0.651 | 0.302 | 0.917 | 0.849 | 0.764 | -0.0135 | -0.0716
2 | CN(CCO)CC[C@H](CSc1ccccc1)Nc1ccc(S(=O)(=O)NC(=O)c2ccc(N3CCC([C@@H](O)c4ccccc4-c4ccc(Cl)cc4)CC3)cc2)cc1S(=O)(=O)C(F)(F)F [AZD4320] + C[C@@H]1COCCN1C2=NC(=NC(=C2)C3(CC3)[S@](=N)(=O)C)C4=C5C=CNC5=NC=C4 [AZD6738] (first compound max 1 µM, 7x7, partner max 10 µM) | 0.917 | 0.94 | 0.662 | 0.93 | 1 | 1 | 0.882 | 0.397 | 0.893 | 0.537 | 0.54 | 0.838 | 0.831 | 0.578 | 1 | 1 | 0.637 | 0.691 | -0.0186 | -0.0061
3 | COc1nnc2ccc(N3CCC(c4ccc(OCCN5CCN(C)C(=O)[C@H]5C)cc4)CC3)nn12 [AZD5153] + Cn1cnc2c(F)c(Nc3ccc(Br)cc3Cl)c(C(=O)NOCCO)cc21 [Selumetinib] (first compound max 1 µM, 7x7, partner max 10 µM) | 0.817 | 0.705 | 0.595 | 0.589 | 0.805 | 0.729 | 0.571 | 0.276 | 0.666 | 0.531 | 0.471 | 0.693 | 0.564 | 0.706 | 0.963 | 1 | 0.268 | 0.812 | 0.0472 | 0.0345
